Test results reported in patent publication US20230277511A1, “RAPAMYCIN (RAPA) COMPOSITION AND PREPARATION METHOD THEREOF” (priority 2020, published 2023).

Test system: AS model mice (ApoE−/− mice)
Experiment: Therapeutic effect on AS in AS model mice (plaque area)
Format: in vivo
Conditions: 1.5 mg/kg intraperitoneally every two days for 3 months, mean±SD, FIG. 10
Protocol: Animal: Apolipoprotein gene-knockout mice (ApoE−/− mice) each with a weight of 18 g to 25 g were purchased from Peking University Laboratory Animal Center.
Construction of AS model mice: The mice were raised to be 8 weeks old in an SPF-grade environment (room temperature: 23° C., relative humidity: 65%, and 12 h light-dark cycle) and then fed with a high-fat feed for 12 weeks to obtain the AS model mice, and then each of the AS model mice was administered. Blood vessels were collected and stained, and a proportion of a plaque area was calculated according to the following formula: AA:AA=P/PO. The data were expressed by mean±standard deviation (SD). The t-test was adopted for statistical analysis. P<0.05 indicated a significant difference. All data were analyzed by software.
Grouping and administration regimen: Blank group: Each of the mice was intraperitoneally injected with 0.2 mL of NS every two days. Control group: Each of the mice was intraperitoneally injected with a RAPA solution diluted with NS to a desired concentration (administration amount: 1.5 mg/kg) every two days. Drug group: Each of the mice was intraperitoneally injected with the RAPA composition in Example 4 at 1.5 mg/kg every two days. The administration was conducted continuously for 3 months, during which state changes in mice were observed. […]

CO[C@H]1C[C@@H]2CC[C@@H](C)[C@@](O)(O2)C(=O)C(=O)N2CCCC[C@H]2C(=O)O[C@H]([C@H](C)C[C@@H]2CC[C@@H](O)[C@H](OC)C2)CC(=O)[C@H](C)/C=C(\C)[C@@H](O)[C@@H](OC)C(=O)[C@H](C)C[C@H](C)/C=C/C=C/C=C/1C [RAPA, rapamycin] was tested, and the “plaque area/total vascular area” value was 48.33%±2.851%.
